What was measured:
Assay type in all cases: cell-based, human
[1] = test system: MYCN gene; experiment: QT-PCR, MYCN mRNA in SKNBE2c cells; conditions: Table 6
Protocol: For the purpose of assessing the ability of the oligonucleotides of the present invention to modulate the expression of the target genes, their ability to reduce the quantity of messenger RNA was analyzed using the Real-Time PCR technique. For this purpose, use was made of 24-well plates, which were seeded with 5.0×10^4 cells with 0.3 ml of OPTI-MEM (GIBCO BRL) medium, 4% FBS and 2 mM L-glutammine (experiments in triplicate) per well. The cells were incubated for 24 hours at 37° C., in an atmosphere containing 5% CO2 to permit adherence to the base of the wells. For each well, the oligonucleotides were analyzed at the following final concentrations: • the antisense oligonucleotides siRNA and siRNA gapmer (i.e. the oligonucleotides containing one or more monomers of chemically modified nucleic acids at the 3' or 5' end, while in the central portion they have monomers of nucleic acids that have not been modified or have been modified at the level of the phosphodiester bond as a phosphorothioate bond) were used at 200 nM; • the antisense oligonucleotides containing phosphorothioate DNA monomers, the RNA antigene oligonucleotides (agRNA) and the oligonucleotides containing DNA monomers and LNA monomers were used at 10 μM; • the morpholino oligonucleotides were used at a concentration of 1 μM, and • the PNA oligonucleotides were administered at a concentration of 1 μM. The cells were treated with the oligonucleotides, adding FBS up to 4% 6 hours after administration of the same. After 24 hours the total RNA was extracted from each well and purified using the RNeasy Mini Kit (QIAGEN). Assays were performed on 8 cell lines obtained from 5 different human tumours which are correlated with MYCN expression, i.e.: • as a neuroblastoma model use was made of the cell lines Kelly, IMR-32 (where the MYCN gene is amplified and superexpressed) and SKNBE2c and LAN1 (where the MYCN gene is amplified and superexpressed and the p53 gene is mutated); • as a rabdomiosarcoma model use was made of the cell line RH30, where the MYCN gene is amplified and superexpressed; • as a Wilms' tumour model use was made of the cell line WiT49, where the MYCN gene is amplified and superexpressed; • as a retinoblastoma model use was made of the cell line Y79, where the MYCN gene is amplified and superexpressed; and • as a model of small cell lung cancer use was made of the cell line H69 where the MYCN gene is amplified and superexpressed. As a control, use was made of the same cell lines as listed above treated with sterile water instead of oligonucleotides. Each RNA sample was quantified (in duplicate) using a NanoDrop ND-1000 spectrophotometer (NanoDrop Technologies). The first strand of cDNA was produced using the cDNA Synthesis Kit for RT-PCR (Roche). For the cDNA synthesis reaction a total of 1 μg of RNA was used. For the real-time PCR, 10 ng of cDNA in a final volume of 20 μl was used with SYBR Green Master Mix 2× (Applied Biosystems) (3 identical experiments were conducted in triplicate). Two housekeeping genes were used as positive controls: GAPDH and beta-actin (ACTB). The conditions of the QT-PCR reaction were: 10 min at 95° C., 20 sec at 95° C., and 30 sec at 60° C., for 50 cycles. The PNAs having SEQ ID NO: 1-12 were also tested on different cell lines which overexpress MYCN (Kelly, SKNBE2c, RH30, […] 1 and H69). The results are shown in Table 6 and confirm the selectivity and specificity of the inhibition effect of the PNAs on the product of protein translation of the MYCN gene.

[2] = test system: Kelly cells; experiment: Cellular proliferation assay (ATP-Lite), Kelly cells
Procedure, shortened: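 Kelly cells seeded at 5×10^3/well in OPTI-MEM with 4% FBS and 2 mM L-glutamine, in triplicate. PNA oligonucleotides at 1, 2.5, 5 or 10 μM. Viability by ATP-Lite luminescence at 48, 72, 96 and 168 h, as ratio to untreated controls.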

[3] = test system: rabdomyosarcoma cells (RH30); experiment: Cellular proliferation assay (ATP-Lite), RH30 cells; conditions: Table 6, PNA

SEQ ID NO: 5: PNA antigene oligonucleotide GCTGGGTGGATGCGGG directed against MYCN (PNA backbone, chemistry not fully specified)
SKNBE2c % mRNA [1]: 59%
Cell Prolif (%) 1 μM 72 h ([2]; PNA 1 μM, 72 h): 79%
Cell Prolif. (%) 5 μM 72 h ([2]; PNA 5 μM, 72 h): 27%
Cell Prolif. (%) 10 μM 72 h ([2]; PNA 10 μM, 72 h): 5%
Cell Prolif (%) 2,5 μM 72 h ([2]; PNA 2,5 μM, 72 h): 53%
Cell Prolif. (%) ([2]; Table 1, treated vs untreated control cells): 53%
Kelly % cell prol. ([2]; Table 6): 53%
(Kelly) Cell Prolif. % ([2]; Table 7, SEQ ID NO: 5 and guanine-group mutants): 53%
RH30 % cell prol. [3]: 64%

From patent publication US10752900B2, “Oligonucleotides for modulating gene expression and uses thereof” (BIOGENERA S.P.A., priority 2012, dated 2020)
